For one assay, the target named is T1, Human D3 Receptors (Homo sapiens, UniProt P35462).
T1 construct: expressed in transfected cells
In words: Inhibition of [^3 H]spiperone binding to human D3 receptors. The text has this:
Dopamine D2 antagonists are established as antipsychotic agents. More recently, the dopamine D3 receptor has been identified. On the basis of the localization of the dopamine D3 receptor in the limbic area of the brain, a selective D3 antagonist should show antipsychotic activity but not have the neurological side effects of D2 antagonists. […] The above test methods are incorporated herein by reference.

In another assay the target is T2, Human D2 Receptors (Homo sapiens, UniProt P14416).
T2 construct: expressed in transfected cells
T2 sequence (P14416 whole entry): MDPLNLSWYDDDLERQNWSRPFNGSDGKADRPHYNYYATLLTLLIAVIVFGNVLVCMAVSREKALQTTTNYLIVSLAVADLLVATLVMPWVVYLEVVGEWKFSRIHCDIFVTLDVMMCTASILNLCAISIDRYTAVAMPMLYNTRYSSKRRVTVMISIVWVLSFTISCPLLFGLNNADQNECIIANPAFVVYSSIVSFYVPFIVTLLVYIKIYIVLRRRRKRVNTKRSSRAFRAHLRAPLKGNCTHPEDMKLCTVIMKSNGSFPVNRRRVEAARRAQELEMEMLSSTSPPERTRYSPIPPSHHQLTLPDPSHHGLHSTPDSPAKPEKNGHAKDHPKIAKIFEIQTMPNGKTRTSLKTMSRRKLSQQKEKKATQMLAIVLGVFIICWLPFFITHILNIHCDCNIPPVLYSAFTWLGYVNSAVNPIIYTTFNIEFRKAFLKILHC
Briefly: Inhibition of [^3 H]spiperone binding to human D2 receptors. The source says:
(§1) The compounds of Formula I are valuable dopaminergic agents. Dopamine D2 antagonists are established as antipsychotic agents. More recently, the dopamine D3 receptor has been identified. On the basis of the localization of the dopamine D3 receptor in the limbic area of the brain, a selective D3 antagonist should show antipsychotic activity but not have the neurological side effects of D2 antagonists. The tests employed indicate that compounds of Formula I bind selectively to the dopamine D3 receptor. Thus, the compounds of Formula I were tested for their ability to bind to dopamine receptors as measured by their inhibition of [^3 H]spiperone binding to the human D2 and D3 receptors in a receptor assay described by MacKenzie R. G., et al., Characterization of the human D3 dopamine receptor expressed in transfected cell lines, Eur. J. Pharmacol., 266:79 (1994); and for their ability to inhibit locomotor activity in mice and rats, a measure of antipsychotic activity, according to the assay described by McLean J. R., et al., Pharmacology, Biochemistry and Behavior, 8:97-99 (1978). The above test methods are incorporated herein by reference.

The subject of assay [1] is Locomotor Activity in Rats. Briefly: Inhibition of locomotor activity in rats. The class given is in vivo. The conditions noted are these: Rattus norvegicus, IP.
From the text: as §1

The mark [2] stands for this setting: human D3, transfected cell lines, read-out: Inhibition of [^3 H]Spiperone Binding to Human D3 Receptors IC50.
Where [3] appears, read: human D2, read-out: Inhibition of [^3 H]Spiperone Binding to Human D2 Receptors IC50.

The structures appear in SMILES notation. Read-outs that look alike come from different tables or passages of the source.

T1 sequence (P35462 whole entry): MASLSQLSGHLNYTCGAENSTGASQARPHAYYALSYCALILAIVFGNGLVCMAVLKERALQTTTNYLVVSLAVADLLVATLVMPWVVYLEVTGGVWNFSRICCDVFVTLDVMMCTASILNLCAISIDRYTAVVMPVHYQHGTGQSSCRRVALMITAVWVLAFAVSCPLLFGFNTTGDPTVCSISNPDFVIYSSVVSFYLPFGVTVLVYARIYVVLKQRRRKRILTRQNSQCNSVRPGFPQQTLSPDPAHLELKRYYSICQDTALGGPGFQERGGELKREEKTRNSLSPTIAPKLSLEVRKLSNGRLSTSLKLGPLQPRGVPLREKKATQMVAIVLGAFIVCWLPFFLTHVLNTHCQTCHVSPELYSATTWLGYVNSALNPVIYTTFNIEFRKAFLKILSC

Take `c1ccc(N2CCN(CCCOc3ccc(-c4nc5ccccc5[nH]4)cc3)CC2)cc1` [Example 1, 2-[4-[3-(4-Phenyl-1-piperazinyl)propoxy]phenyl]-1H-benzimidazole]: the concentration for half-maximal inhibition (IC50) (as a rule, the concentration that gives 50% inhibition) amounted to 1 nM on Human D3 Receptors (setting [2]) and 406 nM at Human D2 Receptors (setting [3]). Moreover, the ED50 (in general, the dose at which the effect has come halfway, by size or by number of responders) in assay [1] was 2.3 mg/kg.

Take `Clc1cccc(N2CCN(CCCOc3ccc(-c4nc5ccccc5[nH]4)cc3)CC2)c1Cl` [Example 2, 2-[4-[3-[4-(2,3-Dichlorophenyl)-1-piperazinyl]propoxy]phenyl]-1H-benzimidazole]: the IC50 was 1.7 nM on Human D3 Receptors (setting [2]) and 45 nM on Human D2 Receptors (setting [3]).

Regarding `c1ccc(N2CCN(CCCOc3ccc(-c4nc5ccccc5[nH]4)cc3)CC2)nc1` [Example 3, 2-[4-[3-[4-(2-Pyridinyl)-1-piperazinyl]propoxy]phenyl]-1H-benzimidazole], at Human D2 Receptors (setting [3]), the IC50 is 70 nM.

For `c1cnc(N2CCN(CCCOc3ccc(-c4nc5ccccc5[nH]4)cc3)CC2)nc1` [Example 4, 2-[4-[3-[4-(2-Pyrimidinyl)-1-piperazinyl]propoxy]phenyl]-1H-benzimidazole], the IC50 at Human D2 Receptors (setting [3]) is 269 nM.

As for `Cc1ccc(N2CCN(CCCOc3ccc(-c4nc5ccccc5[nH]4)cc3)CC2)cc1` [Example 5, 2-[4-[3-[4-(4-Methylphenyl)-1-piperazinyl]propoxy]phenyl]-1H-benzimidazole], the values for the IC50 at Human D3 Receptors (setting [2]) and at Human D2 Receptors (setting [3]) were 102 nM and 2780 nM, respectively.

As for `Fc1ccc(N2CCN(CCCOc3ccc(-c4nc5ccccc5[nH]4)cc3)CC2)cc1` [Example 6, 2-[4-[3-[4-(4-Fluorophenyl)-1-piperazinyl]propoxy]phenyl]-1H-benzimidazole], the IC50 at Human D3 Receptors (setting [2]) worked out at 16 nM; on Human D2 Receptors (setting [3]), 119 nM.

As for `CCCSc1ccccc1N1CCN(CCCOc2ccc(-c3nc4ccccc4[nH]3)cc2)CC1` [Example 7, 2-[4-[3-[4-[2-(Propylthio)phenyl]-1-piperazinyl]propoxy]phenyl]-1H-benzimidazole], on Human D2 Receptors (setting [3]), the IC50 was determined as 3.7 nM.

With `C1=C(c2ccccc2)CCN(CCCOc2ccc(-c3nc4ccccc4[nH]3)cc2)C1` [Example 8, 2-[4-[3-(3,6-Dihydro-4-phenyl-1(2H)-pyridinyl)propoxy]phenyl]-1H-benzimidazole], the IC50 came to 18 nM on Human D3 Receptors and 672 nM at Human D2 Receptors (setting [3]).

As to `Clc1ccc(N2CCN(CCCOc3ccc(-c4nc5ccccc5[nH]4)cc3)CC2)cc1` [Example 9, 2-[4-[3-[4-(4-Chlorophenyl)-1-piperazinyl]propoxy]phenyl]-1H-benzimidazole], the IC50 at Human D2 Receptors (setting [3]) was found to be 784 nM.

On Human D2 Receptors, `COc1ccccc1N1CCN(CCCOc2ccc(-c3nc4ccccc4[nH]3)cc2)CC1` [Example 10, 2-[4-[3-[4-(2-Methoxyphenyl)-1-piperazinyl]-propoxy]phenyl]-1H-benzimidazole] returned an IC50 of 8 nM.

Consider `COc1ccc(N2CCN(CCCOc3ccc(-c4nc5ccccc5[nH]4)cc3)CC2)cc1` [Example 11, 2-[4-[3-[4-(4-Methoxyphenyl)-1-piperazinyl]-propoxy]phenyl]-1H-benzimidazole], for which the half-inhibitory concentration (IC50) at Human D2 Receptors (setting [3]) was 265 nM.

With `Clc1cccc(N2CCN(CCCOc3ccc(-c4nc5ccccc5[nH]4)cc3)CC2)c1` [Example 12, 2-[4-[3-[4-(3-Chlorophenyl)-1-piperazinyl]-propoxy]phenyl]-1H-benzimidazole], the IC50 on Human D2 Receptors (setting [3]) came out at 1270 nM.

On to `Clc1cccc(N2CCN(CCCOc3ccc(-c4nc5cccnc5[nH]4)cc3)CC2)c1Cl` [Example 13, 2-[4-[3-[4-(2,3-Dichlorophenyl)-1-piperazinyl]propoxy]phenyl]-3H-imidazo[4,5-b]pyridine], for which the IC50 was found to be 3 nM at Human D3 Receptors (setting [2]) and 329 nM at Human D2 Receptors (setting [3]). In addition, in assay [1], the ED50 stood at 4.2 mg/kg.

For the molecule `Cn1c(-c2ccc(OCCCN3CCN(c4ccccc4)CC3)cc2)nc2ccccc21` [Example 14, 1-Methyl-2-[4-[3-(4-phenyl-1-piperazinyl)-propoxy]phenyl]-1H-benzimidazole], the IC50 turned out to be 9.5 nM at Human D3 Receptors (setting [2]) and 219 nM at Human D2 Receptors (setting [3]).

As for `C(#Cc1ccc(-c2nc3ccccc3[nH]2)cc1)CCN1CCN(c2ccccc2)CC1` [Example 15, 2-[4-[4-(4-Phenyl-1-piperazinyl)-1-butynyl]phenyl]-1H-benzimidazole], the IC50 was determined as 1.7 nM on Human D3 Receptors (setting [2]) and 581 nM at Human D2 Receptors (setting [3]).

`c1ccc(N2CCN(CCCCOc3ccc(-c4nc5ccccc5[nH]4)cc3)CC2)cc1` [Example 16, 2-[4-[4-(4-Phenyl-1-piperazinyl)butoxy]phenyl]-1H-benzimidazole]: the results for the IC50 at Human D3 Receptors (setting [2]) and at Human D2 Receptors (setting [3]) were 1.7 nM and 46 nM, respectively.

On to `c1ccc(N2CCN(CCCNc3ccc(-c4nc5ccccc5[nH]4)cc3)CC2)cc1` [Example 17, N-[4-(1H-Benzimidazol-2-yl)phenyl]-4-phenyl-1-piperazine-3-propanamine], for which the IC50 turned out to be 1.6 nM at Human D3 Receptors (setting [2]) and 22 nM at Human D2 Receptors (setting [3]).

With `O=C(NCCN1CCN(c2ccccc2)CC1)c1ccc(-c2nc3ccccc3[nH]2)cc1` [Example 18, 4-(1H-Benzimidazol-2-yl)-N-[2-(4-phenyl-1-piperazinyl)ethyl]benzamide], the IC50 at Human D2 Receptors (setting [3]) worked out at 281 nM.

`CCCSc1ccccc1N1CCN(CCNC(=O)c2ccc(-c3nc4ccccc4[nH]3)cc2)CC1` [Example 19, 4-(1H-Benzimidazol-2-yl)-N-[2-[4-[2-(propylthio)phenyl]-1-piperazinyl]ethyl]benzamide]: the IC50 on Human D3 Receptors (setting [2]) came to 19 nM; on Human D2 Receptors (setting [3]), 119 nM.

With `COc1ccccc1N1CCN(CCNC(=O)c2ccc(-c3nc4ccccc4[nH]3)cc2)CC1` [Example 20, 4-(1H-Benzimidazol-2-yl)-N-[2-[4-(2-methoxyphenyl)-1-piperazinyl]ethyl]benzamide], the results for the IC50 at Human D3 Receptors (setting [2]) and on Human D2 Receptors (setting [3]) were 24 nM and 55 nM, respectively.

On to `C(=C/c1ccc(-c2nc3ccccc3[nH]2)cc1)/CCN1CCN(c2ccccc2)CC1` [Example 21, (Z)-2-[4-[4-(4-Phenyl-1-piperazinyl)-1-butenyl]phenyl]-1H-benzimidazole], for which the results for the IC50 at Human D3 Receptors (setting [2]) and on Human D2 Receptors (setting [3]) were 81 nM and 100 nM, respectively.

For `c1ccc(N2CCN(CCCCc3ccc(-c4nc5ccccc5[nH]4)cc3)CC2)cc1` [Example 22, 2-[4-[4-(4-Phenyl-1-piperazinyl)butyl]phenyl]-1H-benzimidazole], the IC50 at Human D3 Receptors (setting [2]) amounted to 1.3 nM; at Human D2 Receptors (setting [3]) it was 32 nM.
